Experimental findings from patent publication US8101550B2, “Anthranilic acid diamide derivative with hetero-aromatic and hetero-cyclic substituents” (Bayer Cropscience AG, priority 2006, dated 2012) are described below.

The data set is described as follows: log P determination by HPLC on reverse-phase column (EEC Directive 79/831 Annex V.A8). Particulars: HPLC on reverse-phase column. It is filed as physicochemical. As to the method:
The log P values stated in the foregoing tables and preparation examples are determined in accordance with EEC Directive 79/831 Annex V.A8 by means of HPLC (High Performance Liquid Chromatography) on a reverse-phase column (C 18). Temperature: 43° C.
The determination by LC-MS in the acidic range takes place at a pH of 2.7 using 0.1% aqueous formic acid and acetonitrile (containing 0.1% formic acid) as eluents; linear gradient from 10% acetonitrile to 95% acetonitrile.
Calibration is with unbranched alkan-2-ones (having 3 to 16 carbon atoms) of known log P value (log P values determined from the retention times by linear interpolation between two successive alkanones).
Regarding `CNC(=O)c1cc(Cl)cc(C)c1NC(=O)c1cc(Cn2nnn(-c3ccc(C(F)(F)F)cc3)c2=O)nn1-c1ncccc1Cl` [I-1-88], the logP (as a rule, the decadic logarithm of the partition coefficient of the neutral form, usually between octanol and water) is listed as 3.61. With `Cc1cc(Cl)cc(C(=O)NC(C)C)c1NC(=O)c1cc(Cn2nnn(-c3ccc(C(F)(F)F)cc3)c2=O)nn1-c1ncccc1Cl` [I-1-89], the lipophilicity (logP) came to 3.96. For `CNC(=O)c1cc(Cl)cc(C)c1NC(=O)c1cc(Cn2nnn(-c3cc(C(F)(F)F)cc(C(F)(F)F)c3)c2=O)nn1-c1ncccc1Cl` [I-1-90], the logP was 4.08. As for `Cc1cc(Cl)cc(C(=O)NC(C)C)c1NC(=O)c1cc(Cn2nnn(-c3cc(C(F)(F)F)cc(C(F)(F)F)c3)c2=O)nn1-c1ncccc1Cl` [I-1-91], the logP came to 4.51.

The compound `Cc1cccc(C(=O)NC(C)C[S+](C)[O-])c1NC(=O)c1cc(Cn2nc(C(F)(F)F)nc2C(F)(F)F)nn1-c1ncccc1Cl` (stereo not drawn) [I-1-92] gave a logP of 2.65. `Cc1cc(Br)cc(C(=O)NC2CC2)c1NC(=O)c1cc(Cn2cc(Br)c(C(F)(F)F)n2)nn1-c1ncccc1Cl` [I-1-93] returned a logP of 3.69. `Cc1cc(Cl)cc(C(N)=O)c1NC(=O)c1cc(Cn2nnn(-c3cc(C(F)(F)F)cc(C(F)(F)F)c3)c2=O)nn1-c1ncccc1Cl` [I-1-94] registered a lipophilicity (logP) of 3.85. On to `Cc1cc(Cl)cc(C(=O)NCC#N)c1NC(=O)c1cc(Cn2nnn(-c3cc(C(F)(F)F)cc(C(F)(F)F)c3)c2=O)nn1-c1ncccc1Cl` [I-1-95], for which the logP came to 4.01.

In the case of `CNC(=O)c1cc(Cl)cc(C)c1NC(=O)c1cc(Cn2nnn(-c3cc(Cl)cc(Cl)c3)c2=O)nn1-c1ncccc1Cl` [I-1-96], the logP was 3.90. With `Cc1cc(Br)cc(C(=O)NCC#N)c1NC(=O)c1cc(Cn2cc(Br)c(C(F)(F)F)n2)nn1-c1ncccc1Cl` [I-1-97], the logP is 3.45. With `CSCC(C)(C)NC(=O)c1cc(Br)cc(C)c1NC(=O)c1cc(Cn2cc(Br)c(C(F)(F)F)n2)nn1-c1ncccc1Cl` [I-1-98], the logP is 4.47.

In the case of `CSCC(C)NC(=O)c1cc(Br)cc(C)c1NC(=O)c1cc(Cn2cc(Br)c(C(F)(F)F)n2)nn1-c1ncccc1Cl` (stereo not drawn) [I-1-99], the logP is recorded as 4.10. In the case of `Cc1cc(Br)cc(C(N)=O)c1NC(=O)c1cc(Cn2cc(Br)c(C(F)(F)F)n2)nn1-c1ncccc1Cl` [I-1-100], the logP was determined as 3.24. The compound `Cc1cc(Br)cc(C(=O)NC(C)CS(C)(=O)=O)c1NC(=O)c1cc(Cn2cc(Br)c(C(F)(F)F)n2)nn1-c1ncccc1Cl` (stereo not drawn) [I-1-101] displayed a logP of 3.32. As for `CNC(=O)c1cc(Cl)cc(C)c1NC(=O)c1cc(Cn2ccc(Cl)n2)nn1-c1ncccc1Cl` [I-1-102], the figure is 2.51. Consider `Cc1cc(Cl)cc(C(=O)NC(C)C)c1NC(=O)c1cc(Cn2ccc(Cl)n2)nn1-c1ncccc1Cl` [I-1-103], for which the logP was 2.96. As for `CNC(=O)c1cc(Cl)cc(C)c1NC(=O)c1cc(Cn2nnc(-c3ccc(C(F)(F)F)cc3)n2)nn1-c1ncccc1Cl` [I-1-104], the figure is 3.79.

In turn, `Cc1cc(Cl)cc(C(=O)NC(C)C)c1NC(=O)c1cc(Cn2nnc(-c3ccc(C(F)(F)F)cc3)n2)nn1-c1ncccc1Cl` [I-1-105] yielded a logP of 4.14.

Turning to `Cc1cc(Cl)cc(C(N)=O)c1NC(=O)c1cc(Cn2nnc(-c3ccc(C(F)(F)F)cc3)n2)nn1-c1ncccc1Cl` [I-1-106], the logP stood at 3.46. For the compound `Cc1cc(Cl)cc(C(=O)NCC#N)c1NC(=O)c1cc(Cn2nnc(-c3ccc(C(F)(F)F)cc3)n2)nn1-c1ncccc1Cl` [I-1-107], the logP is 3.65. In the case of `CNC(=O)c1cc(Cl)cc(C)c1NC(=O)c1cc(Cn2nnn(-c3ccc(C(F)(F)F)c(Cl)c3)c2=O)nn1-c1ncccc1Cl` [I-1-108] it was 3.90; in that of `CNC(=O)c1cc(Cl)cc(C)c1NC(=O)c1cc(Cn2nnn(-c3ccc(C(F)(F)F)cc3Cl)c2=O)nn1-c1ncccc1Cl` [I-1-109], 3.51; in that of `CNC(=O)c1cc(Cl)cc(C)c1NC(=O)c1cc(Cn2cc(I)c(I)n2)nn1-c1ncccc1Cl` [I-1-110], 3.13. As for `Cc1cc(Cl)cc(C(=O)NC(C)C)c1NC(=O)c1cc(Cn2cc(I)c(I)n2)nn1-c1ncccc1Cl` [I-1-111], the logP was found to be 3.58. Compound `CNC(=O)c1cc(Cl)cc(C)c1NC(=O)c1cc(Cn2nnc(-c3cc(C(F)(F)F)cc(C(F)(F)F)c3)n2)nn1-c1ncccc1Cl` [I-1-112] registered a logP of 4.28. For the compound `Cc1cc(Br)cc(C(=O)NC(C)C[S+](C)[O-])c1NC(=O)c1cc(Cn2cc(Br)c(C(F)(F)F)n2)nn1-c1ncccc1Cl` (stereo not drawn) [I-1-113], the logP worked out at 2.97.

`Cc1cc(Cl)cc(C(N)=O)c1NC(=O)c1cc(Cn2nnc(-c3cc(C(F)(F)F)cc(C(F)(F)F)c3)n2)nn1-c1ncccc1Cl` [I-1-114] showed a logP of 4.03. For `Cc1cc(Cl)cc(C(=O)NC(C)C)c1NC(=O)c1cc(Cn2nnn(C)c2=O)nn1-c1ncccc1Cl` [I-1-115], the logP was found to be 2.31. For the compound `CNC(=O)c1cc(Cl)cc(C)c1NC(=O)c1cc(Cn2nc(C(F)(F)F)n(C)c2=O)nn1-c1ncccc1Cl` [I-1-116], the logP came to 2.44. In the case of `Cc1cc(Cl)cc(C(=O)NC(C)C)c1NC(=O)c1cc(Cn2nc(C(F)(F)F)n(C)c2=O)nn1-c1ncccc1Cl` [I-1-117], the logP turned out to be 2.85.

The compound `CNC(=O)c1cc(Cl)cc(C)c1NC(=O)c1cc(Cn2nc(C(F)(F)F)n(-c3ccccc3)c2=O)nn1-c1ncccc1Cl` [I-1-118] registered a logP of 3.10. `Cc1cc(Cl)cc(C(=O)NC(C)C)c1NC(=O)c1cc(Cn2nc(C(F)(F)F)n(-c3ccccc3)c2=O)nn1-c1ncccc1Cl` [I-1-119] had a logP of 3.54.

Take `Cc1cc(Cl)cc(C(=O)NC(C)CS(C)(=N)=O)c1NC(=O)c1cc(Cn2nc(C(F)(F)F)nc2C(F)(F)F)nn1-c1ncccc1Cl` (stereo not drawn) [I-1-120]: the logP was 2.75.

On to `Cc1cc(Br)cc(C(=O)NC(C)(C)CS(C)(=O)=O)c1NC(=O)c1cc(Cn2cc(Br)c(C(F)(F)F)n2)nn1-c1ncccc1Cl` [I-1-121], for which the logP came out at 3.57. `CNC(=O)c1cc(Cl)cc(C)c1NC(=O)c1cc(Cn2nnn(CC(F)(F)F)c2=O)nn1-c1ncccc1Cl` [I-1-122] came in with a logP of 2.51. Consider `Cc1cc(Cl)cc(C(=O)NC(C)C)c1NC(=O)c1cc(Cn2nnn(CC(F)(F)F)c2=O)nn1-c1ncccc1Cl` [I-1-123], for which the logP is on record as 2.92. `CNC(=O)c1cc(Cl)cc(C)c1NC(=O)c1cc(Cn2ccc(Br)n2)nn1-c1ncccc1Cl` [I-1-125] registered a logP of 2.56. For `Cc1cc(Cl)cc(C(=O)NC(C)C)c1NC(=O)c1cc(Cn2nc(C(F)(F)F)n(C3CC3)c2=O)nn1-c1ncccc1Cl` [I-1-126], the logP was found to be 3.18.

With `CNC(=O)c1cc(Cl)cc(C)c1NC(=O)c1cc(Cn2nc(C(F)(F)F)n(C3CC3)c2=O)nn1-c1ncccc1Cl` [I-1-127], the logP was found to be 2.74. On to `Cc1cc(Cl)cc(C(=O)NC(C)(C)C[S+](C)[O-])c1NC(=O)c1cc(Cn2cc(Br)c(C(F)(F)F)n2)nn1-c1ncccc1Cl` (stereo not drawn) [I-1-128], for which the logP worked out at 3.25.

Compound `Cc1cc(Cl)cc(C(=O)N[C@@H](C)CS(C)(=O)=O)c1NC(=O)c1cc(Cn2nc(C(F)(F)F)nc2C(F)(F)F)nn1-c1ncccc1Cl` [I-1-129] returned a logP of 3.27.

Turning to `CSC[C@H](C)NC(=O)c1cc(Cl)cc(C)c1NC(=O)c1cc(Cn2cc(Br)c(C(F)(F)F)n2)nn1-c1ncccc1Cl` [I-1-130], the logP amounted to 4.11.
